How the values were obtained:
apo C-III = experiment: semiquantitative RT-PCR, liver apo C-III mRNA; assay type: in vivo, C57BL/6J mice; details: HF diet-fed mice, normalized to GAPDH, vs HF group
Description: (§1) For part 2, C57BL/6J mice (4 weeks old) were obtained from the National Laboratory Animal Breeding and Research Center. The mice were divided randomly into two groups after 7 days acclimation. The control (CON) group (n=9) was fed a low-fat diet (diet 12450B, Research Diets, Inc., New Brunswick, N.J., USA), whereas the experimental group was fed a 45% high-fat diet (diet 12451, Research Diets, Inc.) for 12 weeks. The compositions of the experimental diets are given in previous studies. […]
(§2) Total RNA from the liver tissue was isolated with a Trizol reagent (Molecular Research Center, Inc., Cincinnati, Ohio, USA) according to the manufacturer's directions. The integrity of the extracted total RNA was examined by 2% agarose gel electrophoresis, and the RNA concentration was determined by ultraviolet (UV) light absorbency at 260 and 280 nm (spectrophotometer U-2800A, Hitachi). […] The relative density of the band was evaluated using AlphaDigiDoc 1201 software (Alpha Innotech Co., San Leandro, Calif., USA). All of the measured PCR products were normalized to the amount of cDNA of GAPDH in each sample. […]

G6 Pase = experiment: semiquantitative RT-PCR, liver G6 Pase mRNA; assay type: in vivo, C57BL/6J mice; details: HF diet-fed mice, normalized to GAPDH, vs HF group
Description: as §1, §2

- mRNA level of G6 Pase in liver (G6 Pase; PTA1 0.06 g/kg/day 4 weeks): significantly decrease
- mRNA level of G6 Pase in liver (G6 Pase; PTA2 0.12 g/kg/day 4 weeks): significantly decrease
SMILES: C[C@@H]1CC[C@]2(C(=O)O)CC[C@]3(C)C(=CC[C@@H]4[C@@]5(C)C[C@@H](O)[C@H](O)C(C)(C)[C@@H]5CC[C@]43C)[C@@H]2[C@]1(C)O [PTA, tormentic acid]
- mRNA level of apo C-III in liver (apo C-III; PTA1 0.06 g/kg/day 4 weeks): significantly decrease
- mRNA level of apo C-III in liver (apo C-III; PTA2 0.12 g/kg/day 4 weeks): significantly decrease

Reference: patent US20170105953A1, “METHOD FOR SUPPRESSING DIABETES AND/OR HEPATIC LIPIDS USING TORMENTIC ACID” (priority 2015, published 2017)
